In ChEMBL document CHEMBL3507680, “University of Dundee, Gates Library screen for HepG2 cell viability”:

Experiment: Human HepG2 cell viability assay in 384 well format
Type: toxicity, cell-based
Design: dose 125 nL, time 70.5 hour; cytotoxicity at 70.5 h: concentration not given beside the values
Settings: HepG2 cells, read-out: Inhibition

Structure (SMILES) | cytotoxicity at 70.5 h
CCNC(=O)N1CC(c2nc(Cc3ccccc3)no2)C1 | -5.59%
Cc1nnsc1C(=O)N1CC(c2nc3ccccc3[nH]2)C1 | -14.1%
Cc1cc(C)n(CCN2CCN(C(=O)c3ccc(Br)o3)CC2)n1 | -4.56%
O=C(Nc1ccc2c(c1)OCO2)N1CCN(CCn2cccn2)CC1 | -11.3%
N#Cc1ccc(C(=O)N2CC(c3nc(-c4ncccn4)no3)C2)cc1 | -13.2%
CCS(=O)(=O)N1CC(c2nc(-c3ccsc3)no2)C1 | -3.37%
COc1ccc(C(=O)NCc2ccco2)nn1 | -6.23%
O=C(NCC(Cc1cccc(F)c1)N1CCCC1=O)c1ccc[nH]c1=O (stereo unspecified) | -16.4%
O=C(NCC(Cc1cccc(F)c1)N1CCCC1=O)C1CCCC1 (stereo unspecified) | -13.2%
CCS(=O)(=O)NCC(Cc1cccc(F)c1)N1CCNC1=O (stereo unspecified) | 6.34%
COc1cc(CN2CCC(COCc3ccccc3)CC2)cc(OC)c1 | 19.3%
O=S(=O)(c1ccccc1Cl)N1CCC2(CC1)OCCS2 | -9.74%
Cc1c(Cl)cccc1S(=O)(=O)N1CCC2(CC1)OCCS2 | -1.11%
O=C(NC1CC1)C1CN(C(=O)c2cnccn2)C1 | -3.98%
O=C(NCC(F)(F)F)C1CN(C(=O)c2cnccn2)C1 | -9.42%
CC(=O)c1cccc(NC(=O)C2CN(S(=O)(=O)C3CC3)C2)c1 | -2.67%
O=C(N1CCOCC1CO)C1(c2cccs2)CCCC1 (stereo unspecified) | -4.96%
c1ccc2c(c1)CCN(c1nc(N3CCOCC3)c3nn[nH]c3n1)C2 | -0.0594%
O=C(NCc1cccs1)C1CCN(c2cc(-n3ccnc3)ncn2)CC1 | -0.911%
O=S(=O)(NCC1CCN(c2cnccn2)CC1)c1cccs1 | 5.13%
COc1ccc(C(=O)NCCN2CCC(c3cccs3)CC2)cc1OC | 0.337%
CCSc1ccccc1C(=O)NCCN1CCC(c2cccs2)CC1 | 4.38%
CSCC(C)(O)CNS(=O)(=O)c1cccc(C)c1 (stereo unspecified) | 6.12%
CSCCC(C)(O)CNC(=O)c1ccsc1 (stereo unspecified) | 0.568%

Structure (SMILES) | cytotoxicity at 70.5 h
CSCCC(C)(O)CNS(=O)(=O)Cc1cccc(C)c1 (stereo unspecified) | -16.9%
O=C(COc1ccccc1F)NCCC(O)c1ccco1 (stereo unspecified) | -3.87%
O=C(NCCC(O)c1ccco1)c1ccccc1Br (stereo unspecified) | -2.47%
COC(=O)c1sccc1S(=O)(=O)NCCC(O)c1ccco1 (stereo unspecified) | -8.35%
O=C(NCCC(O)c1cccs1)c1ccco1 (stereo unspecified) | -9.55%
O=S(=O)(NCCC(O)c1cccs1)c1ccccc1 (stereo unspecified) | -5.21%
COc1ccc(S(=O)(=O)NCCC(O)c2cccs2)c(C)c1 (stereo unspecified) | -8.98%
CC(=O)Nc1nc2c(s1)CN(CC(=O)Nc1ccc(C)c(Cl)c1)CC2 | -14.4%
O=C(Nc1nc2c(s1)CN(S(=O)(=O)C1CC1)CC2)c1cccc(Cl)c1 | 8.23%
O=C(Nc1ccc2c(c1)OCO2)N1CCN(CCn2ccnc2)CC1 | -6.54%
CCc1ccc(S(=O)(=O)N2CCN(CCn3ccnc3)CC2)cc1 | -0.658%
COC(=O)c1ccc(C(=O)NCC2(O)CCOCC2)cc1 | 33.7%
O=C(COc1ccccc1F)NCC(O)(c1ccccc1)C1CC1 (stereo unspecified) | -13.8%
O=C(NCC1(O)CCOc2ccccc21)Nc1ccccc1 (stereo unspecified) | 1.09%
O=C(NCC1(O)CCOc2ccccc21)Nc1ccc2c(c1)OCO2 (stereo unspecified) | 0.267%
COc1ccc(CNC(=O)NCc2cc(C)oc2C)cc1 | -10.8%
O=C1CC(NS(=O)(=O)c2ccc3ccccc3c2)CN1 (stereo unspecified) | -5.96%
CCNC(=O)c1cc2n(n1)CCCO2 | -12.7%
CCOC(=O)CNC(=O)c1cc2n(n1)CCCO2 | -11.8%
Cc1cc2cc(CNC(=O)c3cnn4c3OCCC4)ccc2[nH]1 | -1.4%
CC1(C)OCC2(CO1)CN(C(=O)c1cccc3ccccc13)C2 | -8.48%
CCSc1ccccc1C(=O)N1CC2(COC(C)(C)OC2)C1 | -4.65%
CC1(C)OCC2(CO1)CN(S(=O)(=O)c1ccc(Br)s1)C2 | 4.85%
CN(C)c1ncc(NC(=O)c2ccccc2C(F)(F)F)cn1 | -4.64%

Structure (SMILES) | cytotoxicity at 70.5 h
COCC(=O)Nc1cnc(N2CCN(c3ccccc3)CC2)nc1 | 2.64%
COc1ccc(C)cc1NC(=O)Nc1cnc(N2CCCC2)nc1 | 1.09%
COc1ccc(S(=O)(=O)Nc2cnc(N(C)C)nc2)cc1 | 29.6%
CCc1ccc(S(=O)(=O)Nc2cnc(N3CCOCC3)nc2)cc1 | -2.95%
O=S(=O)(Nc1cnc(N2CCOCC2)nc1)c1cccc(F)c1 | 1.23%
O=S(=O)(Nc1cnc(N2CCOCC2)nc1)c1ccc(C(F)(F)F)cc1 | 2.45%
Cc1noc(CNC(=O)CN(C)c2nc3ccccc3s2)n1 | -5.76%
Cc1ccc(N2CCO[C@@H]3CN(Cc4cccc(C)n4)CC[C@@H]3C2)nn1 | -3.06%
Fc1cccnc1N1CCOCC2(CCCNC2)C1 (stereo unspecified) | 0.635%
COCCC1COC2(CCN(C(=O)CC3CCCC3)CC2)C1 (stereo unspecified) | -3.15%
O=S(=O)(C1CC1)N1CC[C@H](OCC2CC2)[C@@H]1Cc1ccncc1 | -4.87%
COCCC1COC2(CCN(C(=O)C3CCCC3)CC2)C1 (stereo unspecified) | -6.45%
COCCC1COC2(CCN(C(=O)C3CCCCC3)CC2)C1 (stereo unspecified) | -5.85%
Cc1cnc(N2CCC3(CC2)CC(NC(=O)N(C)C)CO3)nc1 (stereo unspecified) | -0.406%
CN1CCCN(C(=O)c2cc3c(s2)CCN3C(=O)C2CC2)CC1 | -3.39%
CN1CCCN(C(=O)c2cc3c(s2)CCN3C(=O)c2ccccc2)CC1 | -1.37%
CN1[C@@H](C(=O)NCC2CC2)C[C@@H]2CN(c3ncccn3)C[C@@H]21 | -3.13%
CCOC(=O)CCNC(=O)c1nc(OCC)ccc1Cl | -3.61%
Cc1n[nH]c(=O)c(C(=O)N2CCN(CCc3cccs3)CC2)c1C | -2.36%
CCN(CC1CCOC1)C(=O)Nc1ccc(OCC(F)(F)F)nc1 (stereo unspecified) | -2.33%
Cn1cnc2c1CCN(Cc1csc(-c3ccccc3F)n1)C2 | -3.29%
CC(O)CN1CCN(C(=O)c2cc(Cl)cc3cccnc23)CC1 (stereo unspecified) | -5.43%
CC(C)(O)CN1CCN(C(=O)c2cccc3cccnc23)CC1 | -2.87%
CCc1[nH]ncc1C(=O)N1CCCN(Cc2nccn2C(C)C)CC1 | 0.199%

Structure (SMILES) | cytotoxicity at 70.5 h
CCOc1ccc(Cl)c(C(=O)NCCc2ncc[nH]2)n1 | -3.13%
Cc1nc(CN2CCCN(C(=O)c3cccnc3O)CC2)cs1 | -4.77%
CCC(O)CN1CCN(C(=O)c2cc(Cl)cc3cccnc23)CC1 (stereo unspecified) | 18.2%
NC(=O)c1cc(C2CCCN(CCOCC3CC3)C2)n[nH]1 (stereo unspecified) | -1.45%
Cc1nc(C2CCCN2CCCS(=O)(=O)c2ccccc2)no1 (stereo unspecified) | -3.41%
O=C(Nc1cccc(C2SCCS2)c1)C1CCCN1c1nccs1 (stereo unspecified) | 0.117%
COc1ccc(C2CCCN2C(=O)NCCn2ccnc2)cc1 (stereo unspecified) | 1.98%
COc1ccc(C2CCCN2C(=O)NCCCn2ccnc2)cc1 (stereo unspecified) | 16.1%
Cc1noc(C)c1C(=O)N1CCCN(Cc2nccn2C(C)C)CC1 | 0.0993%
CC(=O)N(C)CC(=O)NCC1CCN(c2cc(Cl)ccc2C)C1 (stereo unspecified) | 2.11%
CCc1nc(C2CCCN2CCS(=O)(=O)c2ccccc2)no1 (stereo unspecified) | -1.81%
Cc1cc(C(=O)N2CCCN(Cc3cnn(C)c3)CC2)no1 | -3.47%
O=C(Cc1cn2ccsc2n1)N1CCCC(n2ccnc2)C1 (stereo unspecified) | -2.03%
CN(C)c1cc(C(=O)N2CCCCCC2)ccn1 | -8.97%
CN(C)c1ccc(NC(=O)NCC2CCOC2)cn1 (stereo unspecified) | -9.11%
O=C(c1ccc(OCC2CC2)nc1)N1CCCC(n2cccn2)C1 (stereo unspecified) | -7.07%
Cn1ccc(CN2CCC(NC(=O)C3CCCCC3)CC2)cc1=O | -3.14%
c1ccc(COc2cccc(CNC3CCc4ncnn4C3)c2)cc1 (stereo unspecified) | 19.6%
Cc1cnn(C2CCCN(C(=O)c3ccc(OCC4CC4)nc3)C2)c1 (stereo unspecified) | -3.84%
O=C(c1ccc(N2CCCC2)nc1)N1CCCC(n2cncn2)C1 (stereo unspecified) | -9%
O=C(Nc1nccs1)NC1CCN(CC2CCCC2)CC1 | -13.1%
c1cnnc(N2CCCC2CNCc2nc(-c3cccs3)no2)c1 (stereo unspecified) | -15.1%
c1ccc(OCc2cscn2)c(CNC2CCc3ncnn3C2)c1 (stereo unspecified) | -4.78%
Cc1cnn(CC2CCCN2Cc2cn3ccsc3n2)c1 (stereo unspecified) | -9.34%

Structure (SMILES) | cytotoxicity at 70.5 h
c1cnn(CC2CCCN2Cc2cn3ccsc3n2)c1 (stereo unspecified) | 6.04%
CC(C)CNC(=O)NC(=O)C(C)Nc1cccc(CN2CCOC2=O)c1 (stereo unspecified) | -10.8%
CC1CCN(C(=O)CN2CC(c3nc(C4CC4)no3)C2)CC1 | 23.6%
Cc1noc(C2CN(Cc3ccc4c(c3)CCO4)C2)n1 | -11.7%
c1cnc(-c2noc(C3CN(Cc4ccc5c(c4)CCO5)C3)n2)nc1 | -2.95%
c1csc(-c2noc(C3CN(Cc4ccc5c(c4)CCO5)C3)n2)c1 | -9.73%
O=C(CN1CC(c2nc(-c3cccs3)no2)C1)NCC1CCCO1 (stereo unspecified) | -2.94%
COc1cc(COCC2CCN(Cc3cccnc3)CC2)cc(OC)c1 | -1.2%
Cc1ccc(N2CC[C@@H]3CN(Cc4cccc(C)n4)C[C@@H]3C2)nn1 | -4.34%
Cn1nc(Cn2cccn2)c2c1CN(C1CCOCC1)C2 | -0.608%
O=C(C1CCC2(CCN(c3nncs3)CC2)CO1)N1CCCC1 (stereo unspecified) | -1.78%
CCN1CC[C@]2(CN(Cc3nccs3)C[C@H]2c2ccccc2)C1=O | -0.124%
O=C1NCC[C@]12CN(Cc1nccs1)C[C@H]2c1ccccc1 | -0.358%
Fc1cnc(N2CC[C@@H]3O[C@@H](COCc4cccnc4)CC[C@@H]32)nc1 | -6.15%
O=S(=O)(NCC1OCCc2cn(CC3CCOCC3)nc21)C1CC1 (stereo unspecified) | -3.73%
CN(C)C1CCN(C(=O)c2cc3c(s2)CCN3C(=O)C2CC2)CC1 | -2.71%
Fc1cnc(N2CC[C@@H]3O[C@@H](COCc4ccccn4)CC[C@@H]32)nc1 | 7.99%
Cc1ccc(CN2CCc3c(CN4CCCC4)n[nH]c3C2)s1 | -4.44%
CN(CCO)CC1COCCN1C(=O)C1CCCCC1 (stereo unspecified) | -14.2%
CN(CCO)CC1COCCN1C(=O)CCC1CCCC1 (stereo unspecified) | 47.6%
